ChEMBL document CHEMBL3102772, “New natural products as new leads for antibacterial drug discovery” (Bioorg Med Chem Lett, 2014)
In brackets after ≈: the same amount, converted by molar mass. One block for each molecule: values may come before it. Starred links: 1 amine or outer side, 2 acyl side, 3 side chain; linkers in the order of their positions; H or OH if unused. Positions of bridges follow the written chain, without caps; N, C: chain ends. Non-standard residues stand in square brackets, D forms with d. Residues, ends and D or L forms follow the SMILES beside them. X1 = CC(C)=CCc1ccc(Cl)c2[nH]cc(CC(N[*:1])C(=O)[*:2])c12; Trp(7-Cl) = N[CH](Cc1c[nH]c2c(Cl)cccc12)C(=O)O; Malonyl = O=C(CC(=O)[*:2])[*:1]; Cya = N[CH](CS(=O)(=O)O)C(=O)O; Dab = NCC[C@H](N)C(=O)O

Tests used:
HepG2 = assay: Cytotoxicity against human HepG2 cells; type: cell-based
[1] = Cytotoxicity against human Fa2N-4 cells; type: cell-based
Staphylococcus aureus [2] = assay: Antibacterial activity against Staphylococcus aureus assessed as growth inhibition; type: functional
Klebsiella pneumoniae = assay: Antibacterial activity against Klebsiella pneumoniae clinical isolate assessed as growth inhibition; type: functional
Pseudomonas aeruginosa [3] = assay: Antibacterial activity against Pseudomonas aeruginosa clinical isolate assessed as growth inhibition; type: functional
Acinetobacter baumannii = assay: Antibacterial activity against Acinetobacter baumannii clinical isolate assessed as growth inhibition; type: functional
Escherichia coli [4] = assay: Antibacterial activity against Escherichia coli clinical isolate assessed as growth inhibition; type: functional
Escherichia coli [5] = assay: Antibacterial activity against Escherichia coli SANK 70569 assessed as growth inhibition; type: functional
Pseudomonas aeruginosa [6] = assay: Bactericidal activity against Pseudomonas aeruginosa PA14 after 16 to 20 hrs by agar diffusion assay; type: functional
Pseudomonas aeruginosa [7] = assay: Antibacterial activity against Pseudomonas aeruginosa PA14 assessed as growth inhibition after 16 to 20 hrs by agar diffusion assay; type: functional, organism-based
[8] = Ratio of MIC for Staphylococcus epidermidis PAS9001 harboring SPase S92P mutant to MIC for wild type Staphylococcus epidermidis RP62A; type: functional
[9] = test system: Staphylococcus epidermidis; assay: Antibacterial activity against Staphylococcus epidermidis PAS9001 harboring SPase S92P mutant assessed as growth inhibition after 24 hrs by micro-broth dilution method; type: functional; details: PAS9001, 24 h
Pseudomonas aeruginosa [10] = assay: Antibacterial activity against Pseudomonas aeruginosa PAS2006 harboring SPase P84S mutant assessed as growth inhibition after 24 hrs by micro-broth dilution method; type: functional; details: PAS2006, 24 h
Escherichia coli [11] = assay: Antibacterial activity against Escherichia coli PAS0232 harboring SPase P84S mutant assessed as growth inhibition after 24 hrs by micro-broth dilution method; type: functional; details: PAS0232, 24 h
Staphylococcus aureus [12] = assay: Antibacterial activity against Staphylococcus aureus PAS8001 harboring SPase P29S mutant assessed as growth inhibition after 24 hrs by micro-broth dilution method; type: functional; details: PAS8001, 24 h
[13] = test system: Staphylococcus epidermidis; assay: Antibacterial activity against wild type Staphylococcus epidermidis RP62A assessed as growth inhibition after 24 hrs by micro-broth dilution method; type: functional
Staphylococcus aureus [14] = assay: Antibacterial activity against 10 clinical isolates of methicillin resistant Staphylococcus aureus […] assessed as growth inhibition by broth dilution method; type: functional
Staphylococcus aureus [15] = assay: Antibacterial activity against 24 clinical isolates of methicillin resistant Staphylococcus aureus […] assessed as growth inhibition by broth dilution method; type: functional
Escherichia coli [16] = assay: Antibacterial activity against Escherichia coli NCTC 10418 assessed as growth inhibition; type: functional
Pseudomonas aeruginosa [17] = assay: Antibacterial activity against Pseudomonas aeruginosa ATCC 27853 infected in sc dosed mouse septisemia model measured at 1 to 5 hrs; type: functional; details: ATCC 27853, sc
Pseudomonas aeruginosa [18] = assay: Antibacterial activity against Pseudomonas aeruginosa ATCC 27853 assessed as growth inhibition by microdilution method; type: functional
Bacillus subtilis = assay: Antibacterial activity against Bacillus subtilis assessed as growth inhibition; type: functional
Escherichia coli [19] = assay: Antibacterial activity against Escherichia coli MB5746 harboring envA1/TolC efflux pump mutant assessed as growth inhibition after 20 hrs by agar dilution method; type: functional; details: MB5746, 20 h
Escherichia coli [20] = assay: Antibacterial activity against Escherichia coli MB2884 assessed as growth inhibition after 20 hrs by agar dilution method; type: functional; details: MB2884, 20 h
Staphylococcus aureus [21] = assay: Antibacterial activity against methicillin resistant Staphylococcus aureus COL MB5393 assessed as growth inhibition after 20 hrs by agar dilution method; type: functional; details: COL MB5393, 20 h
Staphylococcus aureus [22] = assay: Antibacterial activity against methicillin sensitive Staphylococcus aureus MB2865 assessed as growth inhibition after 20 hrs by agar dilution method; type: functional; details: MB2865, 20 h

Structure (SMILES): [C-]#[N+]C(=C)[C@@](Cc1ccc(OC)cc1)([N+]#[C-])C1C[C@@H](OC(=O)CO)CC[C@@H]1O (stereo partly drawn)
Activity (HepG2): > 512 µg/mL
Activity [1]: > 512 µg/mL
MIC (Staphylococcus aureus [2]): > 128 µg/mL
MIC (Klebsiella pneumoniae): 0.256 µg/mL (≈ 0.667 µM)
MIC (Pseudomonas aeruginosa [3]): 0.256 µg/mL (≈ 0.667 µM)
MIC (Acinetobacter baumannii): 0.256 µg/mL (≈ 0.667 µM)
MIC (Escherichia coli [4]): 0.256 µg/mL (≈ 0.667 µM)

Structure (SMILES): CCCCCCC(CCCCCC(O)C(N)=O)OC(=O)C1CC=CN1C(=O)c1ccccc1O (stereo not drawn)
MBC (Pseudomonas aeruginosa [6]): 100 µg/mL (≈ 211 µM)
IC50 (Pseudomonas aeruginosa [7]): 0.16 µg/mL (≈ 0.337 µM)

Structure (SMILES): CCCCCCCCCCCCCCCC(=O)N(C)[C@H](CO)C(=O)N[C@H](C)C(=O)NCC(=O)N(C)[C@@H]1C(=O)N[C@@H](C)C(=O)N[C@H](C(=O)O)Cc2ccc(O)c(c2)-c2cc1ccc2O [ARYLOMYCIN C16]
Ratio [8]: 32
MIC [9]: 8 µg/mL (≈ 9.08 µM)
MIC (Pseudomonas aeruginosa [10]): 8 µg/mL (≈ 9.08 µM)
MIC (Escherichia coli [11]): 4 µg/mL (≈ 4.54 µM)
MIC (Staphylococcus aureus [12]): 2 µg/mL (≈ 2.27 µM)
MIC [13]: 0.25 µg/mL (≈ 0.284 µM)

Structure (SMILES): CCCC(C)/C=C(/C)C(=O)OC(CCCCCCC/C=C/C(=O)NCCC(=O)NC(CS(=O)(=O)O)C(=O)N(C)C1C(=O)NC(C)C(=O)NC(C(=O)O)Cc2ccc(OS(=O)(=O)O)c(c2)-c2cc1cc(OS(=O)(=O)O)c2O[C@H]1O[C@H](C)[C@@H](O)[C@H](O)[C@@H]1O)CCC(C)C (stereo partly drawn)
MIC (Staphylococcus aureus [14]): 0.5 µg/mL (≈ 0.371 µM)

Structure (SMILES): CC(C)=CCc1ccc(Cl)c2[nH]cc(CC3NC(=O)C(Cc4c[nH]c5c(Cl)cccc45)NC(=O)C4CCCN4C(=O)C(CS(=O)(=O)O)NC(=O)C(NC(=O)C(NC(=O)C(C)NC(=O)CC(=O)O)C(C)C)COC(=O)C(CO)NC(=O)C(CC(C)C)NC(=O)C(C(C)C)NC3=O)c12 (stereo not drawn) (Malonyl-AVS[Cya]P[Trp(7-Cl)][X1]VLS; ester 3-C; configuration not given here)
MIC (Staphylococcus aureus [15]): 16 µg/mL (≈ 11.4 µM)

Structure (SMILES): C/C(=C\c1ccc(N(C)C)cc1)C(=O)N[C@@H]1[C@H](O)[C@@H](O)[C@H]2OC(OC(C(=O)O)C(O)CO)O[C@H]2[C@@H]1N(C)C (stereo partly drawn)
MIC (Bacillus subtilis): 70 µg/mL (≈ 130 µM)

Structure (SMILES): C=C1CC[C@@H](O[C@H]2C[C@@](O)([C@H](C)NC(=O)c3[nH]c(C)c(Cl)c3Cl)[C@H](O)[C@@H](C)O2)[C@@H]2C=C[C@H](C)C(/C(O)=C3\C(=O)[C@H](C(C)C)N([C@H]4O[C@H](C)[C@H](OC(N)=O)[C@H](OC(C)=O)[C@@H]4OC)C3=O)[C@@H]12 (stereo partly drawn) [KIBDELOMYCIN]
MIC (Escherichia coli [19]): 32 µg/mL (≈ 34 µM)
MIC (Escherichia coli [20]): > 64 µg/mL
MIC (Staphylococcus aureus [21]): 0.5 µg/mL (≈ 0.532 µM)
MIC (Staphylococcus aureus [22]): 2 µg/mL (≈ 2.13 µM)

Now from value to molecule, other results behind:

MIC (Escherichia coli [5]): 12.5 µg/mL (≈ 19.1 µM)
Structure (SMILES): CCCCCC[C@H]1OC(=O)CNC(=O)[C@H]([C@H](C)O)NC(=O)[C@H](CO)NC(=O)[C@H]([C@H](C)CC)NC(=O)[C@H](CC(C)C)N(C)C(=O)[C@@H]1C

MIC (Escherichia coli [5]): 1.56 µg/mL (≈ 2.19 µM)
Structure (SMILES): CCCCCCCCCC[C@H]1OC(=O)CNC(=O)[C@H]([C@H](C)O)NC(=O)[C@H](CO)NC(=O)[C@H]([C@H](C)CC)NC(=O)[C@H](CC(C)C)N(C)C(=O)[C@@H]1C

MIC (Escherichia coli [16]): 6.25 µg/mL (≈ 10 µM)
Structure (SMILES): CCC[C@@H]1OC(=O)[C@@H](C)C[C@H](C)CCCCC(=O)CCC[C@@H](CC)/C=C/C=C(\COC)CC[C@@H](O)[C@@H](O)C[C@H](O)CNC1=O

MIC (Escherichia coli [16]): 3.12 µg/mL (≈ 4.98 µM)
Structure (SMILES): CCC[C@@H]1OC(=O)[C@@H](C)C[C@H](C)CCCCC(=O)CCC[C@@H](CC)CC/C=C(\COC)CC[C@@H](O)[C@@H](O)C[C@H](O)CNC1=O

MIC (Pseudomonas aeruginosa [18]): 0.008 µg/mL
Structure (SMILES): CC[C@H](C)[C@@H]1NC(=O)[C@H](Cc2c[nH]c3ccccc23)NC(=O)[C@H]([C@@H](C)O)NC(=O)[C@@H]2CCCN2C(=O)[C@@H]2CCCN2C(=O)[C@H](CCN)NC(=O)[C@H](C)NC(=O)[C@H](CCN)NC(=O)[C@H](CCN)NC(=O)[C@H](Cc2c[nH]c3ccccc23)NC(=O)[C@H](CCN)NC(=O)[C@H](CCN)NC(=O)[C@H](CCCCN)NC(=O)[C@H](CCN)NC1=O (cyclo(A[Dab]PPTWI[Dab]K[Dab][Dab]W[Dab][Dab]))
ED50 (Pseudomonas aeruginosa [17]): 0.25 mg/kg
